In the Biogen ADME set (Fang et al. 2023):
Converted amounts (≈) assume the structure as drawn.

Conditions: for aqueous solubility: pH 6.8

| SMILES | MDR1-MDCK efflux ratio | intrinsic clearance, human liver microsomes [mL/min/kg] | intrinsic clearance, rat liver microsomes [mL/min/kg] | aqueous solubility [µg/mL] | fraction unbound, human plasma | fraction unbound, rat plasma |
| --- | --- | --- | --- | --- | --- | --- |
| Cc1nc(-c2ccc(Cl)c(Cl)c2)n(CC(C)(C)O)n1 | 0.634 | ≤ 4.74 | ≤ 10.7 | 41.9 (≈ 140 µM) | – | – |
| CC(=O)N1CCC(CNc2nccc3cccnc23)CC1 | 1.9 | ≤ 4.74 | 80.8 | – | – | – |
| O=[N+]([O-])c1ccc(S(=O)(=O)Nc2cccc(-c3nc4ccccc4s3)c2)cc1 | – | 267 | 512 | – | – | – |
| Cc1cnc(CS(=O)(=O)C2CCCC2)cn1 | – | – | – | 36.2 (≈ 151 µM) | – | – |
| O=C(Nc1ccccc1-n1ccnc1)c1ccc(F)cc1 | 0.961 | 10.2 | 40.3 | 60.8 (≈ 216 µM) | – | – |
| O=C([C@@H]1CCCN1C(=O)NC(c1ccccc1)c1ccccc1)N1CCCCC1 | 26.9 | 205 | 867 | – | – | – |
| CCOc1cc(N2CCc3nc[nH]c3C2)ncn1 | – | ≤ 4.74 | 77.8 | – | – | – |
| O=C(c1ccc(F)cc1)N1CCN(CC(=O)N2CCCC2=O)CC1 | 10.4 | ≤ 4.74 | 14.1 | 94.8 (≈ 284 µM) | – | – |
| Cc1ccc2nc3c(c(C(=O)NCc4cnn(C)c4)c2c1)CCCC3 | 17.8 | 36.9 | 74.1 | 56.3 (≈ 168 µM) | – | – |
| c1ccc2c(c1)CN(c1cnc3ccccc3n1)CCN2 | 0.54 | 93.9 | 628 | 25.1 (≈ 90.8 µM) | – | – |
| CCc1nc(C)cn2nc(-c3cc(=O)n4cc(C5CCN(C)CC5)cc(C)c4n3)cc12 | 3.62 | ≤ 4.74 | 25.7 | 17.7 (≈ 42.4 µM) | 0.0738 | 0.0392 |
| COc1cc(-c2ccc(Cn3nc(C)cc3C)cn2)cc(OC)c1OC | 1.65 | 46.1 | 345 | – | – | – |
| NC(=O)c1cnc(N2CCc3[nH]nc(C(F)(F)F)c3C2)c(Cl)c1 | 7.33 | ≤ 4.74 | – | – | 0.0968 | – |
| O=C(Nc1nc2ccccc2[nH]1)c1ccc(-n2cccc2)cc1 | 0.359 | – | – | – | – | – |
| Cn1cnnc1CNc1ccccc1C#N | 4.56 | ≤ 4.74 | ≤ 10.7 | 33.6 (≈ 158 µM) | – | – |
| C1CCN(c2nc(NC3CC3)nc(N3CCCCC3)n2)CC1 | 0.301 | – | – | 0.62 (≈ 2.05 µM) | – | – |
| O=c1n(CCc2ccncc2)nnn1-c1ccccc1 | 0.571 | 5.8 | 65.2 | 23.1 (≈ 86.3 µM) | – | – |
| CC(C)N(CCCNC(=O)Nc1ccc(C(C)(C)C)cc1)C[C@@H]1O[C@@H](n2ccc3c(N)ncnc32)[C@H](O)[C@H]1O | 6.05 | 187 | 1930 | – | – | – |
| CC(C)CN1CC[C@H](c2nc3ccc(C#N)cc3[nH]2)C1 | 1.46 | 6.69 | 76.3 | 36.7 (≈ 137 µM) | – | – |
| Cc1cc(CN2CC(O)(CC#N)C2)ccc1F | 0.602 | 15 | 703 | – | – | – |

| SMILES | MDR1-MDCK efflux ratio | intrinsic clearance, human liver microsomes [mL/min/kg] | intrinsic clearance, rat liver microsomes [mL/min/kg] | aqueous solubility [µg/mL] | fraction unbound, human plasma | fraction unbound, rat plasma |
| --- | --- | --- | --- | --- | --- | --- |
| N#C/C(=C\c1cnn(Cc2ccccc2)c1)c1nc2cc(Cl)ccc2c(=O)[nH]1 | 1.17 | – | – | 0.17 (≈ 0.438 µM) | – | – |
| O=C1CNC(=O)N1CCCN1CCc2sccc2C1 | 1.52 | ≤ 4.74 | 28.6 | 51.2 (≈ 183 µM) | – | – |
| O=C1CCCN1CCCc1nc(Cc2c(Cl)cccc2Cl)n[nH]1 | 78.4 | 46.1 | 381 | – | – | – |
| COc1ccc(C2=N/C(=C/c3cc4ccccc4n3C(C)=O)C(=O)O2)cc1 | – | – | – | 2.34 (≈ 6.49 µM) | – | – |
| O=C(NCC1(Sc2ccccc2)CC1)c1ccc(=O)[nH]n1 | – | 7.88 | 567 | – | – | – |
| O=C(NC1CC1)c1cccnc1Oc1ccccc1 | 0.592 | ≤ 4.74 | 11.7 | 65.2 (≈ 257 µM) | – | – |
| COc1cc(CN[C@@H]2CCC[C@H]2Cc2cc(C)no2)ccc1OC(C)C | – | 66.8 | 2380 | – | – | – |
| O=C(CN1CCCN(c2ccc(C(F)(F)F)cn2)CC1)Nc1ccccc1 | 0.748 | 112 | 807 | 1.7 (≈ 4.49 µM) | – | – |
| CN(Cc1ccccc1Br)C(=O)Nc1ccc(C(=O)N2CCCC2)cc1 | 9.97 | 14.6 | 767 | 69.4 (≈ 167 µM) | – | – |
| Cc1ccc(C(=O)NCCc2ccc(F)cc2)o1 | 0.511 | 22 | 140 | – | – | – |
| O=C1CC(N2CCCN(c3ccc(C(F)(F)F)cn3)CC2)C(=O)N1c1ccccc1 (stereo not given) | 0.761 | 270 | 1280 | – | – | – |
| Nc1c(C(=O)NCC2CCCO2)sc(=S)n1-c1ccc(Cl)cc1 (stereo not given) | – | 35.3 | 92.3 | – | – | – |
| CCN(Cc1ccccc1)C(=O)c1cccnc1N | 0.65 | ≤ 4.74 | 174 | 36.7 (≈ 144 µM) | – | – |
| O=C(NCCNc1ncccc1C(F)(F)F)c1cnc2ccccn2c1=O | 1.09 | 27.8 | 585 | 66.6 (≈ 177 µM) | – | – |
| COc1ccc(Cc2ncnn2-c2ccc3c(c2)OCO3)c(OC)c1 | 0.614 | 131 | 3040 | 34.9 (≈ 103 µM) | – | – |
| N#CCCCN1CCC(c2c[nH]c3ccccc23)CC1 | 0.46 | 23.8 | 1730 | 54.6 (≈ 204 µM) | – | – |
| COc1ccccc1C(=O)Nc1cccc(-c2ccnc(C)n2)c1 | – | 60.3 | 167 | 46.4 (≈ 145 µM) | – | – |
| CCCCc1c(C)[nH]c2nc(N(Cc3cccs3)C(C)=O)nn2c1=O | 26 | 13.7 | 81 | 39 (≈ 108 µM) | – | – |
| Cc1ccc(F)cc1C(=O)N1CCc2c(nc(-c3ccccn3)nc2N(C)C)C1 | – | 8.74 | 61.6 | 25.7 (≈ 65.8 µM) | – | – |
| CCOc1cc2nn(CCC(C)(C)O)cc2cc1NC(=O)c1cccc(C(F)F)n1 | 11 | ≤ 4.74 | ≤ 10.7 | 3.55 (≈ 8.48 µM) | 0.0126 | 0.0186 |

| SMILES | MDR1-MDCK efflux ratio | intrinsic clearance, human liver microsomes [mL/min/kg] | intrinsic clearance, rat liver microsomes [mL/min/kg] | aqueous solubility [µg/mL] | fraction unbound, human plasma | fraction unbound, rat plasma |
| --- | --- | --- | --- | --- | --- | --- |
| COc1cccc(-c2ccc(C(=O)N(C)Cc3c(C)nn(C(C)C)c3C)o2)c1 | 1.47 | 264 | 1960 | 47 (≈ 123 µM) | – | – |
| CN1CCN(C(=O)c2ccc3cc(CCNc4ncnc5ccc(C#N)cc45)ccc3c2)CC1 | – | 81.8 | 238 | – | – | – |
| COc1cc2c(NC3CCN(C(C)C)CC3)nc(N3CCC(F)(F)CC3)nc2cc1OCCCN1CCCC1 | – | ≤ 4.74 | 26.3 | 64.8 (≈ 119 µM) | – | – |
| COc1ccccc1-c1ccc(CC2(C(=O)NC3CC3)CCOCC2)cc1 | 1.89 | 81.4 | 2150 | 41.8 (≈ 114 µM) | – | – |
| O=C1N=C2C=CC=CN2C12Cc1ccccc1C2 | 4.09 | ≤ 4.74 | ≤ 10.7 | 37.4 (≈ 158 µM) | – | – |
| COc1cccc2c1Oc1nc(-c3ccccc3)[nH]c(=S)c1C2 | – | – | – | 0.35 (≈ 1.09 µM) | – | – |
| CN(C)c1ccnc(NC(=O)c2cnsn2)c1 | – | 163 | 280 | – | – | – |
| CCCN(C(=O)c1c(CC)noc1C)C1Cc2ccccc2C1 | 0.947 | 182 | 2380 | 37.3 (≈ 119 µM) | – | – |
| Cc1nc(-c2cccc(-c3ccc(C(=O)NC[C@@H]4CCCN4)cc3)c2)no1 | 113 | ≤ 4.74 | 30.1 | – | – | – |
| CN(c1ncc(F)cn1)[C@H]1CCCNC1 | 0.438 | ≤ 4.74 | ≤ 10.7 | – | 1 | 1 |
| Cc1ccc(F)cc1S(=O)(=O)Nc1ccc(C(=O)N2CCCC2)cc1 | 22.3 | 127 | 6150 | – | – | – |
| Nc1ccccc1-c1nc(C2CCCCCC2)no1 | – | 47.7 | 1310 | – | – | – |
| Cc1cnccc1-c1cnc(N(C)C)nc1-c1ccco1 | 0.636 | 140 | 2250 | – | – | – |
| c1csc(Cc2nc(-c3cnccn3)no2)c1 | – | 10.8 | 80.8 | – | – | – |
| O=c1[nH]nc(CCCN2CCOCC2)n1-c1cccc(Cl)c1 | 25.6 | ≤ 4.74 | 28.1 | 40.4 (≈ 125 µM) | – | – |
| C[n+]1cc2c3c(ccc2c2ccc4cc5c(cc4c21)OCO5)OCO3 | 13.5 | 8.23 | 58.2 | 32.2 | – | – |
| N#Cc1cccnc1NCCc1cn2c(n1)CCCC2 | 1.33 | 11.5 | 2440 | 52.4 (≈ 196 µM) | – | – |
| O=C(Nc1ccc(-c2nnn[nH]2)cc1)c1cc(COc2ccc(F)cc2)on1 | – | – | – | 16.4 (≈ 43 µM) | – | – |
